Experimental data from ChEMBL document CHEMBL3414533, “Thiophene containing trisubstituted methanes [TRSMs] as identified lead against Mycobacterium tuberculosis” (Eur J Med Chem, 2015).
In brackets after ≈: the same amount, converted by molar mass.

Key:
[1] = tested on: Mycobacterium tuberculosis; assay: Antimycobacterial activity against rifampicin-resistant Mycobacterium tuberculosis by agar dilution method; assay type: functional
[2] = tested on: Mycobacterium tuberculosis; assay: Antimycobacterial activity against multidrug-resistant Mycobacterium tuberculosis by agar dilution method; assay type: functional

Question: How did the MIC [1] turn out when `COc1ccc(C(c2ccc(OCCN(C(C)C)C(C)C)cc2)c2cccs2)cc1` (configuration not stated) was run?
Answer: 6.25 µM (≈ 2.65 µg/mL)

Question: What about the MIC [2] of the same compound?
Answer: 6.25 µM (≈ 2.65 µg/mL)
